# Results taken from patent US8129398B2 (priority 2008, dated 2012).
# Target: T1, HIV-integrase (Human immunodeficiency virus type 1 group M subtype B, UniProt P12497)
# T1 construct: Recombinant integrase (0.26 ng) was incubated with the beads
# Assay: HIV-Integrase Inhibition Activity (SPA bead integration assay with P33 labeled target DNA)
# Type: biochemical
# Conditions: recombinant integrase, class symbols; read-out: in vitro activity
# Summary of the method: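 Strand integration read as bead-proximity CPM after P33 target DNA (0.1 fmol) and inhibitor were added to washed integrase–substrate DNA complexes on SPA beads. Enzyme bound 90 min at 37° C; EDTA (10 mM final) terminated reaction; IC50 graded A/B/C.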
row,Structure (SMILES),IC50 [µM]
1,"O=C(NC12CCC(CC1)Cn1c2nc(C(=O)NCc2ccc(F)cc2)c(O)c1=O)c1ccc2nccn2c1 [Example 239, 7,10-Ethanopyrimido[1,2-a]azepine-2-carboxamide, N-[(4-fluorophenyl)methyl]-4,6,7,8,9,10-hexahydro-3-hydroxy-10-[(imidazo[1,2-a]pyridin-6-ylcarbonyl)amino]-4-oxo-]",< 0.01
2,CN(C)C(=O)C(=O)NC12CCC(CC1)Cn1c2nc(C(=O)NCCOc2ccccc2)c(O)c1=O [Example 355],< 0.01
3,"CO[C@H]1C[C@@H](C(=O)NC23CCC(CC2)Cn2c3nc(C(=O)NCc3ccc(F)c(C)c3)c(O)c2=O)N(C(=O)c2nnc(C)o2)C1 [Example 297, 7,10-Ethanopyrimido[1,2-a]azepine-2-carboxamide, N-[(4-fluoro-3-methylphenyl)methyl]-4,6,7,8,9,10-hexahydro-3-hydroxy-10-[[[(2S,4S)-4-methoxy-1-[(5-methyl-1,3,4-oxadiazol-2-yl)carbonyl]-2-pyrrolidinyl]carbonyl]amino]-4-oxo-]",< 0.01
4,"O=C1CC[C@@H](C(=O)NC23CCC(CC2)Cn2c3nc(C(=O)NCc3ccc(F)cc3)c(O)c2=O)N1 [Example 46, N-(4-Fluorobenzyl)-3-hydroxy-4-oxo-10-((5-oxoprolyl)amino)-4,6,7,8,9,10-hexahydro-7,10-ethanopyrimido[1,2-a]azepine-2-carboxamide]",< 0.01
5,"CN(C)C(=O)C(=O)NC12CCC(CCn3c1nc(C(=O)NCc1ccc(F)cc1)c(O)c3=O)C2 (centres unmarked) [Example 199, Ethanediamide, N′-[2-[[[(4-fluorophenyl)methyl]amino]carbonyl]-7,8,9,10-tetrahydro-3-hydroxy-4-oxo-8,11-methano-4H-pyrimido[1,2-a]azocin-11(6H)-yl]-N,N-dimethyl-]",< 0.01
6,"O=C(NC12CCC(CC1)Cn1c2nc(C(=O)NCc2ccc(F)cc2)c(O)c1=O)C(=O)N1CC[C@H](F)C1 [Example 103, N-(4-Fluorobenzyl)-10-((((3S)-3-fluoro-1-pyrrolidinyl)(oxo)acetyl)amino)-3-hydroxy-4-oxo-4,6,7,8,9,10-hexahydro-7,10-ethanopyrimido[1,2-a]azepine-2-carboxamide]",< 0.01
7,CN(C)C(=O)C(=O)NC12CCC(CC1)Cn1c2nc(C(=O)NCc2ccc(O)cc2)c(O)c1=O [Example 390],0.01 to 0.1
8,"CN(C)C(=O)NC12CCC(CC1)Cn1c2nc(C(=O)NCc2ccc(F)cc2)c(O)c1=O [Example 27, 10-((Dimethylcarbamoyl)amino)-N-(4-fluorobenzyl)-3-hydroxy-4-oxo-4,6,7,8,9,10-hexahydro-7,10-ethanopyrimido[1,2-a]azepine-2-carboxamide]",0.01 to 0.1
9,"CN(C)C(=O)C(=O)NC12CCC(C)(CC1)Cn1c2nc(C(=O)NCc2ccc(F)cc2)c(O)c1=O [Example 180, Ethanediamide, N′-[2-[[[(4-fluorophenyl)methyl]amino]carbonyl]-6,7,8,9-tetrahydro-3-hydroxy-7-methyl-4-oxo-7,10-ethanopyrimido[1,2-a]azepin-10(4H)-yl]-N,N-dimethyl-]",< 0.01
10,"COCCN(C)C(=O)C(=O)N(C)C12CCC(CC1)Cn1c2nc(C(=O)NCc2ccc(F)c(C)c2)c(O)c1=O [Example 168, N-(2-((4-Fluoro-3-methylbenzyl)carbamoyl)-3-hydroxy-4-oxo-6,7,8,9-tetrahydro-7,10-ethanopyrimido[1,2-a]azepin-10(4H)-yl)-N′-(2-methoxyethyl)-N,N′-dimethylethanediamide]",< 0.01
11,"O=C(NC12CCC(CC1)Cn1c2nc(C(=O)NCc2ccc(F)cc2)c(O)c1=O)C(=O)N1CCN(C(=O)N2CCOCC2)CC1 [Example 79, N-(4-Fluorobenzyl)-3-hydroxy-10-(((4-(4-morpholinylcarbonyl)-1-piperazinyl)(oxo)acetyl)amino)-4-oxo-4,6,7,8,9,10-hexahydro-7,10-ethanopyrimido[1,2-a]azepine-2-carboxamide]",< 0.01
12,"CC(C)N(C)C(=O)C(=O)NC12CCC(CC1)Cn1c2nc(C(=O)NCc2ccc(F)cc2)c(O)c1=O [Example 105, N′-(2-((4-Fluorobenzyl)carbamoyl)-3-hydroxy-4-oxo-6,7,8,9-tetrahydro-7,10-ethanopyrimido[1,2-a]azepin-10(4H)-yl)-N-methyl-N-(1-methylethyl)ethanediamide]",< 0.01
13,"Cn1cnc(S(=O)(=O)N2CCN(C(=O)C(=O)NC34CCC(CC3)Cn3c4nc(C(=O)NCc4ccc(F)cc4)c(O)c3=O)CC2)c1 [Example 148, N-(4-Fluorobenzyl)-3-hydroxy-10-(((4-((1-methyl-1H-imidazol-4-yl)sulfonyl)-1-piperazinyl)(oxo)acetyl)amino)-4-oxo-4,6,7,8,9,10-hexahydro-7,10-ethanopyrimido[1,2-a]azepine-2-carboxamide]",< 0.01
14,CC(C)C(=O)N1CCCC1C(=O)NC12CCC(CC1)Cn1c2nc(C(=O)NCc2ccc(F)cc2)c(O)c1=O (centres unmarked) [Example 399],< 0.01
15,"O=C(NC12CCC(CC1)Cn1c2nc(C(=O)NCc2ccc(F)cc2)c(O)c1=O)c1cnc2ccccc2c1 [Example 315, 7,10-Ethanopyrimido[1,2-a]azepine-2-carboxamide, N-[(4-fluorophenyl)methyl]-4,6,7,8,9,10-hexahydro-3-hydroxy-4-oxo-10-[(3-quinolinylcarbonyl)amino]-]",< 0.01
16,"CO[C@H]1C[C@@H](C(=O)NC23CCC(CC2)Cn2c3nc(C(=O)NCc3ccc(F)c(C)c3)c(O)c2=O)N(C(=O)c2ncn(C)n2)C1 [Example 299, 7,10-Ethanopyrimido[1,2-a]azepine-2-carboxamide, N-[(4-fluoro-3-methylphenyl)methyl]-4,6,7,8,9,10-hexahydro-3-hydroxy-10-[[[(2S,4S)-4-methoxy-1-[(1-methyl-1H-1,2,4-triazol-3-yl)carbonyl]-2-pyrrolidinyl]carbonyl]amino]-4-oxo-]",< 0.01
17,"Cc1cc(CNC(=O)c2nc3n(c(=O)c2O)CC2CCC3(NC(=O)C(=O)N(C)CC(F)(F)F)CC2)ccc1F [Example 51, N′-(2-((4-Fluoro-3-methylbenzyl)carbamoyl)-3-hydroxy-4-oxo-6,7,8,9-tetrahydro-7,10-ethanopyrimido[1,2-a]azepin-10(4H)-yl)-N-methyl-N-(2,2,2-trifluoroethyl)ethanediamide]",< 0.01
18,"O=C(NCc1ccc(F)cc1)c1nc2n(c(=O)c1O)CC1CCC2(NC(=O)N2CCOCC2)CC1 [Example 22, N-(4-Fluorobenzyl)-3-hydroxy-10-((4-morpholinylcarbonyl)amino)-4-oxo-4,6,7,8,9,10-hexahydro-7,10-ethanopyrimido[1,2-a]azepine-2-carboxamide]",0.01 to 0.1
19,"Cn1nnnc1C(=O)NC12CCC(CC1)Cn1c2nc(C(=O)NCc2ccc(F)cc2)c(O)c1=O [Example 249, 7,10-Ethanopyrimido[1,2-a]azepine-2-carboxamide, N-[(4-fluorophenyl)methyl]-4,6,7,8,9,10-hexahydro-3-hydroxy-10-[[(1-methyl-1H-tetrazol-5-yl)carbonyl]amino]-4-oxo-]",< 0.01
20,"Cc1cc(CNC(=O)c2nc3n(c(=O)c2O)CC2CCC3(NC(=O)[C@H]3CCN(C(=O)c4cc(C)n(C)n4)C3)CC2)ccc1F [Example 301, 7,10-Ethanopyrimido[1,2-a]azepine-2-carboxamide, 10-[[[(3S)-1-[(1,5-dimethyl-1H-pyrazol-3-yl)carbonyl]-3-pyrrolidinyl]carbonyl]amino]-N-[(4-fluoro-3-methylphenyl)methyl]-4,6,7,8,9,10-hexahydro-3-hydroxy-4-oxo-]",0.01 to 0.1
